Here are results for six molecules from PubChem BioAssay AID1259407 (Chemical Carcinogenesis Research Information System (CCRIS), 2018).

This data set deals with CCRIS mutagenicity, Ames/micronucleus/aberration tests. Description: CCRIS mutagenicity studies.
[1] abbreviates: Test System: AMES SALMONELLA TYPHIMURIUM, Strain/Indicator: TA98, Metabolic Activation: NONE, Method: STANDARD PLATE.
Where [2] appears, read: Test System: AMES SALMONELLA TYPHIMURIUM, Strain/Indicator: TA100, Metabolic Activation: NONE, Method: STANDARD PLATE.
Setting [3] is: Test System: AMES SALMONELLA TYPHIMURIUM, Strain/Indicator: TA102, Metabolic Activation: NONE, Method: STANDARD PLATE.

Calls of active or inactive are those of the source. How the calls were made is not given here.

On to `CCOC(=O)NNc1nncc2ccccc12`, for which the mutagenic call under setting [1] is “inactive; negative”; the mutagenic call (Test System: AMES SALMONELLA TYPHIMURIUM, Strain/Indicator: TA98, Metabolic Activation: RAT, LIVER, S-9, AROCLOR 1254, Method: STANDARD PLATE) was “inactive; negative”; the mutagenic call (Test System: AMES SALMONELLA TYPHIMURIUM, Strain/Indicator: TA100, Metabolic Activation: RAT, LIVER, S-9, AROCLOR 1254, Method: STANDARD PLATE) is “inactive; negative”; the mutagenic call (Test System: AMES SALMONELLA TYPHIMURIUM, Strain/Indicator: TA100, Metabolic Activation: RAT, LIVER, S-9, PHENOBARBITAL, Method: STANDARD PLATE) was “active; positive”; the mutagenic call (Test System: AMES SALMONELLA TYPHIMURIUM, Strain/Indicator: TA1535, Metabolic Activation: NONE, Method: STANDARD PLATE) was “inactive; negative”; the mutagenic call (Test System: AMES SALMONELLA TYPHIMURIUM, Strain/Indicator: TA1535, Metabolic Activation: RAT, LIVER, S-9, AROCLOR 1254, Method: STANDARD PLATE) is “inactive; negative”. The mutagenic call by setting is: (Test System: AMES SALMONELLA TYPHIMURIUM, Strain/Indicator: TA1537, Metabolic Activation: NONE, Method: STANDARD PLATE) “inactive; negative”; (Test System: AMES SALMONELLA TYPHIMURIUM, Strain/Indicator: TA1537, Metabolic Activation: RAT, LIVER, S-9, AROCLOR 1254, Method: STANDARD PLATE) “inactive; negative”; (Test System: AMES SALMONELLA TYPHIMURIUM, Strain/Indicator: TA1538, Metabolic Activation: NONE, Method: STANDARD PLATE) “inactive; negative”; (Test System: AMES SALMONELLA TYPHIMURIUM, Strain/Indicator: TA1538, Metabolic Activation: RAT, LIVER, S-9, AROCLOR 1254, Method: STANDARD PLATE) “inactive; negative”; (Test System: UDS RAT HEPATOCYTES, Strain/Indicator: THY INCORP, Metabolic Activation: NONE, Method: AUTORADIOGRAPHY) “inactive; negative”.
`CCN(CCCl)c1ccc(-c2nc3ccc(-c4nc5ccc(N6CCN(C)CC6)cc5[nH]4)cc3[nH]2)cc1`: the mutagenic call is, setting by setting: under setting [1], “inactive; negative”; under setting [2], “inactive; negative”; under setting [3], “inactive; negative”.
Take `Nc1ncnc2c1ncn2[C@H]1C[C@H](O)[C@@H](CO)O1`: the mutagenic call was “inactive; negative” under setting [1]; “inactive; negative” (Test System: AMES SALMONELLA TYPHIMURIUM, Strain/Indicator: TA98, Metabolic Activation: RAT, LIVER, S-9, POLYCHLORINATED BIPHENYLS, Method: STANDARD PLATE); “inactive; negative” under setting [2]; “inactive; negative” (Test System: AMES SALMONELLA TYPHIMURIUM, Strain/Indicator: TA100, Metabolic Activation: RAT, LIVER, S-9, POLYCHLORINATED BIPHENYLS, Method: STANDARD PLATE); “active; positive” (Test System: MOUSE LYMPHOMA, Strain/Indicator: L5178Y (TK+/TK-), Metabolic Activation: NONE, Method: SUSPENSION/PLATE).
With `COC1=CC(=O)c2c(nc(C)c3c4c([nH]c23)CCCC4)C1=O`, the mutagenic call (Test System: AMES SALMONELLA TYPHIMURIUM, Strain/Indicator: TA97A, Metabolic Activation: NONE, Method: STANDARD PLATE) was “inactive; negative”; the mutagenic call (Test System: AMES SALMONELLA TYPHIMURIUM, Strain/Indicator: TA97A, Metabolic Activation: RAT LIVER S-9, AROCLOR 1254, Method: STANDARD PLATE) was “inactive; negative”; the mutagenic call under setting [1] was “active; positive”; the mutagenic call (Test System: AMES SALMONELLA TYPHIMURIUM, Strain/Indicator: TA98, Metabolic Activation: RAT LIVER S-9, AROCLOR 1254, Method: STANDARD PLATE) was “active; positive”; the mutagenic call under setting [2] was “inactive; negative”; the mutagenic call (Test System: AMES SALMONELLA TYPHIMURIUM, Strain/Indicator: TA100, Metabolic Activation: RAT LIVER S-9, AROCLOR 1254, Method: STANDARD PLATE) was “inactive; negative”. Also, the mutagenic call runs as follows: under setting [3], “inactive; negative”; (Test System: AMES SALMONELLA TYPHIMURIUM, Strain/Indicator: TA102, Metabolic Activation: RAT LIVER S-9, AROCLOR 1254, Method: STANDARD PLATE) “inactive; negative”.
Turning to `O=C(CCl)C(Cl)Cl`, the mutagenic call by setting is: (Test System: AMES SALMONELLA TYPHIMURIUM, Strain/Indicator: TA100, Metabolic Activation: NONE, Method: FLUCTUATION TEST) “active; positive”; (Test System: AMES SALMONELLA TYPHIMURIUM, Strain/Indicator: TA100, Metabolic Activation: RAT, LIVER, S-9, AROCLOR 1254, Method: FLUCTUATION TEST) “inactive; negative”.
Consider `CCCOC(=O)NO`, for which, under “Test System: E. COLI, Strain/Indicator: WP2 UVRA, Metabolic Activation: NONE, Method: FLUCTUATION TEST”, the mutagenic call is “active; positive”.
